From ChEMBL document CHEMBL3865792, “Antioxidant and antitumor activity of trolox, trolox succinate, and α-tocopheryl succinate conjugates with nitroxides” (Eur J Med Chem, 2016) come the findings set out here.

The structures appear in SMILES notation.

Tested on in one series: not listed separately
Briefly: Ratio of IC50 for human U937 cells to concentration causing antioxidant activity in Salmonella typhimurium TA102 harboring […] mutant. The series is classed as functional, U-937.
Settings: not given
Consider `Cc1c(C)c2c(c(C)c1OC(=O)CCC(=O)NC1CC(C)(C)N([O])C1(C)C)CC[C@@](C)(CCC[C@H](C)CCC[C@H](C)CCCC(C)C)O2` (stereo partly drawn), for which the Ratio was 100 - 1000.

Tested on in a further series: not listed separately
Briefly: Cytotoxicity against hamster AG17-1 cells assessed as reduction in cell viability at 300 uM after 72 hrs by MTT assay. The note with it: Chinese hamster, read-out: INH. The series is classed as toxicity, cell-based, Cricetulus griseus. (Tetrazolium dyes change colour on reduction, which living cells bring about.)
Consider `Cc1c(C)c2c(c(C)c1OC(=O)CCC(=O)NC1CC(C)(C)N([O])C1(C)C)CC[C@@](C)(CCC[C@H](C)CCC[C@H](C)CCCC(C)C)O2` (stereo partly drawn), for which the cytotoxicity at 72 h, 300 µM was 38%.

Tested on in another series: not listed separately
As to the kind of experiment: Cytotoxicity against human HepG2 cells assessed as reduction in cell viability after 72 hrs by MTT assay. The series is classed as functional, cell-based. Particulars: HepG2, 72 h.
Take `Cc1c(C)c2c(c(C)c1OC(=O)CCC(=O)NC1CC(C)(C)N([O])C1(C)C)CC[C@@](C)(CCC[C@H](C)CCC[C@H](C)CCCC(C)C)O2` (stereo partly drawn): the IC50 (commonly the midpoint of a concentration-inhibition curve) is above 300 µM.

Tested on in another series: not listed separately
Briefly: Ratio of IC50 for human CEM13 cells to concentration causing antioxidant activity in Salmonella typhimurium TA102 harboring […] mutant. The series is classed as functional.
Settings: not given
As for `Cc1c(C)c2c(c(C)c1OC(=O)CCC(=O)NC1CC(C)(C)N([O])C1(C)C)CC[C@@](C)(CCC[C@H](C)CCC[C@H](C)CCCC(C)C)O2` (stereo partly drawn), the Ratio is recorded as 100 - 1000.

Tested on in another series: not listed separately
Briefly: Cytotoxicity against human MCF7 cells assessed as reduction in cell viability after 72 hrs by MTT assay. The series is classed as functional, cell-based. Particulars: MCF7, 72 h.
As for `Cc1c(C)c2c(c(C)c1OC(=O)CCC(=O)NC1CC(C)(C)N([O])C1(C)C)CC[C@@](C)(CCC[C@H](C)CCC[C@H](C)CCCC(C)C)O2` (stereo partly drawn), the concentration for half-maximal inhibition (IC50) amounted to 95 µM.

Tested on in another series: not listed separately
Briefly: Cytotoxicity against human CEM13 cells assessed as reduction in cell viability after 72 hrs by MTT assay. The series is classed as functional, cell-based. Particulars: CEM13, 72 h.
Regarding `Cc1c(C)c2c(c(C)c1OC(=O)CCC(=O)NC1CC(C)(C)N([O])C1(C)C)CC[C@@](C)(CCC[C@H](C)CCC[C@H](C)CCCC(C)C)O2` (stereo partly drawn), the IC50 is above 300 µM.

Tested on in the next series: not listed separately
Briefly: Ratio of IC50 for human MCF7 cells to concentration causing antioxidant activity in Salmonella typhimurium TA102 harboring […] mutant. The series is classed as functional.
Settings: not given
Turning to `Cc1c(C)c2c(c(C)c1OC(=O)CCC(=O)NC1CC(C)(C)N([O])C1(C)C)CC[C@@](C)(CCC[C@H](C)CCC[C@H](C)CCCC(C)C)O2` (stereo partly drawn), the Ratio is on record as 100 - 1000.

Tested on in the next series: not listed separately
Briefly: Cytotoxicity against human MT4 cells assessed as reduction in cell viability after 72 hrs by MTT assay. The note with it: MT4, 72 h. The series is classed as functional, cell-based.
`Cc1c(C)c2c(c(C)c1OC(=O)CCC(=O)NC1CC(C)(C)N([O])C1(C)C)CC[C@@](C)(CCC[C@H](C)CCC[C@H](C)CCCC(C)C)O2` (stereo partly drawn): the half-maximal inhibitory concentration (IC50) turned out to be 87 µM.

The subject of the next series is Salmonella enterica subsp. enterica serovar Typhimurium. As to the kind of experiment: Antioxidant activity in Salmonella typhimurium TA102 harboring […] mutant assessed as inhibition of t-BuO2H-dependant mutant formation at 30 uM preincubated with compound followed by t-BuO2H addition after 48 hrs by Ames test. The series is classed as functional.
Settings: not given
A general note: In the Ames test, an excess of revertant colonies over the control signals mutagenicity.
For the compound `Cc1c(C)c2c(c(C)c1OC(=O)CCC(=O)NC1CC(C)(C)N([O])C1(C)C)CC[C@@](C)(CCC[C@H](C)CCC[C@H](C)CCCC(C)C)O2` (stereo partly drawn), the inhibition – broadly, the change of the read-out against control, counted positive when it falls – was 12%.

Tested on in a further series: not listed separately
As to the kind of experiment: Cytotoxicity against human RPMI8226 cells assessed as reduction in cell viability after 72 hrs by MTT assay. The series is classed as functional, cell-based. Particulars: RPMI-8226, 72 h.
Turning to `Cc1c(C)c2c(c(C)c1OC(=O)CCC(=O)NC1CC(C)(C)N([O])C1(C)C)CC[C@@](C)(CCC[C@H](C)CCC[C@H](C)CCCC(C)C)O2` (stereo partly drawn), the half-inhibitory concentration (IC50) amounted to 55 µM.

Tested on in a further series: not listed separately
Briefly: Genotoxicity in Escherichia coli PQ37 expressing lacZ gene assessed as ratio of inducible beta-galactosidase activity to alkaline phosphatase activity at 30 mM after 2 hrs by SOS-chromotest relative to control. The series is classed as toxicity. The note with it: Escherichia coli PQ37 cells expressing lacZ gene, read-out: FC.
As for `Cc1c(C)c2c(c(C)c1OC(=O)CCC(=O)NC1CC(C)(C)N([O])C1(C)C)CC[C@@](C)(CCC[C@H](C)CCC[C@H](C)CCCC(C)C)O2` (stereo partly drawn), the fold induction at 2 h, 30000 µM turned out to be 0.8.

In another series the test system is Salmonella enterica subsp. enterica serovar Typhimurium. As to the kind of experiment: Antioxidant activity in Salmonella typhimurium TA102 harboring […] mutant assessed as inhibition of t-BuO2H-dependant mutant formation at 3 uM preincubated with compound followed by t-BuO2H addition after 48 hrs by Ames test. The series is classed as functional.
Settings: not given
As for `Cc1c(C)c2c(c(C)c1OC(=O)CCC(=O)NC1CC(C)(C)N([O])C1(C)C)CC[C@@](C)(CCC[C@H](C)CCC[C@H](C)CCCC(C)C)O2` (stereo partly drawn), the inhibition amounted to 29%.

Tested on in the next series: not listed separately
Briefly: Cytotoxicity against human U937 cells assessed as reduction in cell viability after 72 hrs by MTT assay. The series is classed as functional, cell-based. The note with it: U-937, 72 h.
As for `Cc1c(C)c2c(c(C)c1OC(=O)CCC(=O)NC1CC(C)(C)N([O])C1(C)C)CC[C@@](C)(CCC[C@H](C)CCC[C@H](C)CCCC(C)C)O2` (stereo partly drawn), the IC50 came out at 69 µM.

Another series relates to Salmonella typhimurium. Briefly: Genotoxicity in Salmonella typhimurium TA102 harboring […] mutant assessed as frequency of reversion from histidine auxotrophy to prototrophy at 30 mM after 48 hrs by Ames test (reference value: 209 +/- 10 No _unit). The series is classed as toxicity, organism-based. Particulars: salmonella enterica subsp. enterica serovar typhimurium, 30000 µM.
On to `Cc1c(C)c2c(c(C)c1OC(=O)CCC(=O)NC1CC(C)(C)N([O])C1(C)C)CC[C@@](C)(CCC[C@H](C)CCC[C@H](C)CCCC(C)C)O2` (stereo partly drawn), for which the Activity was determined as 227.

Tested on in another series: not listed separately
As to the kind of experiment: Ratio of IC50 for human HEPG2 cells to concentration causing antioxidant activity in Salmonella typhimurium TA102 harboring […] mutant. The series is classed as functional.
Settings: not given
As for `Cc1c(C)c2c(c(C)c1OC(=O)CCC(=O)NC1CC(C)(C)N([O])C1(C)C)CC[C@@](C)(CCC[C@H](C)CCC[C@H](C)CCCC(C)C)O2` (stereo partly drawn), the Ratio was 100 - 1000.

Tested on in the next series: not listed separately
As to the kind of experiment: Ratio of IC50 for human MT4 cells to concentration causing antioxidant activity in Salmonella typhimurium TA102 harboring […] mutant. The series is classed as functional.
Settings: not given
Regarding `Cc1c(C)c2c(c(C)c1OC(=O)CCC(=O)NC1CC(C)(C)N([O])C1(C)C)CC[C@@](C)(CCC[C@H](C)CCC[C@H](C)CCCC(C)C)O2` (stereo partly drawn), the Ratio is 100 - 1000.

Tested on in another series: not listed separately
As to the kind of experiment: Ratio of IC50 for human RPMI8226 cells to concentration causing antioxidant activity in Salmonella typhimurium TA102 harboring […] mutant. The series is classed as functional, RPMI-8226.
Settings: not given
As for `Cc1c(C)c2c(c(C)c1OC(=O)CCC(=O)NC1CC(C)(C)N([O])C1(C)C)CC[C@@](C)(CCC[C@H](C)CCC[C@H](C)CCCC(C)C)O2` (stereo partly drawn), the Ratio is 100 - 1000.

Tested on in another series: not listed separately
Briefly: Cytotoxicity against hamster AG17-1 cells assessed as reduction in cell viability after 72 hrs by MTT assay. The series is classed as toxicity, cell-based, Cricetulus griseus. Particulars: Chinese hamster.
With `Cc1c(C)c2c(c(C)c1OC(=O)CCC(=O)NC1CC(C)(C)N([O])C1(C)C)CC[C@@](C)(CCC[C@H](C)CCC[C@H](C)CCCC(C)C)O2` (stereo partly drawn), the IC50 at 72 h is above 300 µM.

Tested on in the next series: not listed separately
Briefly: Cytotoxicity against human CEM13 cells assessed as reduction in cell viability at 300 uM after 72 hrs by MTT assay. The series is classed as functional. Particulars: CEM13, 72 h.
Regarding `Cc1c(C)c2c(c(C)c1OC(=O)CCC(=O)NC1CC(C)(C)N([O])C1(C)C)CC[C@@](C)(CCC[C@H](C)CCC[C@H](C)CCCC(C)C)O2` (stereo partly drawn), the inhibition at 300 µM came out at 34%.

Tested on in the next series: not listed separately
Briefly: Cytotoxicity against human HepG2 cells assessed as reduction in cell viability at 300 uM after 72 hrs by MTT assay. The note with it: HepG2, 72 h. The series is classed as functional.
Turning to `Cc1c(C)c2c(c(C)c1OC(=O)CCC(=O)NC1CC(C)(C)N([O])C1(C)C)CC[C@@](C)(CCC[C@H](C)CCC[C@H](C)CCCC(C)C)O2` (stereo partly drawn), the inhibition at 300 µM stood at 38%.

Tested on in a further series: not listed separately
Briefly: Cytotoxicity against mouse LMTK cells assessed as reduction in cell viability at 300 uM after 72 hrs by MTT assay. The series is classed as toxicity. The note with it: read-out: INH.
Consider `Cc1c(C)c2c(c(C)c1OC(=O)CCC(=O)NC1CC(C)(C)N([O])C1(C)C)CC[C@@](C)(CCC[C@H](C)CCC[C@H](C)CCCC(C)C)O2` (stereo partly drawn), for which the cytotoxicity at 72 h, 300 µM stood at 30%.

Tested on in another series: not listed separately
As to the kind of experiment: Cytotoxicity against mouse LMTK cells assessed as reduction in cell viability after 72 hrs by MTT assay. The series is classed as toxicity.
Settings: not given
As to `Cc1c(C)c2c(c(C)c1OC(=O)CCC(=O)NC1CC(C)(C)N([O])C1(C)C)CC[C@@](C)(CCC[C@H](C)CCC[C@H](C)CCCC(C)C)O2` (stereo partly drawn), the concentration for half-maximal inhibition (IC50) at 72 h is above 300 µM.

Another series concerns Salmonella enterica subsp. enterica serovar Typhimurium. As to the kind of experiment: Antioxidant activity in Salmonella typhimurium TA102 harboring […] mutant assessed as inhibition of t-BuO2H-dependant mutant formation at 0.3 uM preincubated with compound followed by t-BuO2H addition after 48 hrs by Ames test. The series is classed as functional.
Settings: not given
`Cc1c(C)c2c(c(C)c1OC(=O)CCC(=O)NC1CC(C)(C)N([O])C1(C)C)CC[C@@](C)(CCC[C@H](C)CCC[C@H](C)CCCC(C)C)O2` (stereo partly drawn): the inhibition turned out to be 21%.
